Each structure is given as a SMILES string.

Usually IC50 stands for the midpoint of a concentration-inhibition curve.

This assay concerns the target T1, Full-length USP19 (Homo sapiens, UniProt O94966).
T1 construct: Full-length USP19 was purchased from Boston Biochem (E-576); purchased Boston Biochem E-576
T1 sequence (O94966 1-1318): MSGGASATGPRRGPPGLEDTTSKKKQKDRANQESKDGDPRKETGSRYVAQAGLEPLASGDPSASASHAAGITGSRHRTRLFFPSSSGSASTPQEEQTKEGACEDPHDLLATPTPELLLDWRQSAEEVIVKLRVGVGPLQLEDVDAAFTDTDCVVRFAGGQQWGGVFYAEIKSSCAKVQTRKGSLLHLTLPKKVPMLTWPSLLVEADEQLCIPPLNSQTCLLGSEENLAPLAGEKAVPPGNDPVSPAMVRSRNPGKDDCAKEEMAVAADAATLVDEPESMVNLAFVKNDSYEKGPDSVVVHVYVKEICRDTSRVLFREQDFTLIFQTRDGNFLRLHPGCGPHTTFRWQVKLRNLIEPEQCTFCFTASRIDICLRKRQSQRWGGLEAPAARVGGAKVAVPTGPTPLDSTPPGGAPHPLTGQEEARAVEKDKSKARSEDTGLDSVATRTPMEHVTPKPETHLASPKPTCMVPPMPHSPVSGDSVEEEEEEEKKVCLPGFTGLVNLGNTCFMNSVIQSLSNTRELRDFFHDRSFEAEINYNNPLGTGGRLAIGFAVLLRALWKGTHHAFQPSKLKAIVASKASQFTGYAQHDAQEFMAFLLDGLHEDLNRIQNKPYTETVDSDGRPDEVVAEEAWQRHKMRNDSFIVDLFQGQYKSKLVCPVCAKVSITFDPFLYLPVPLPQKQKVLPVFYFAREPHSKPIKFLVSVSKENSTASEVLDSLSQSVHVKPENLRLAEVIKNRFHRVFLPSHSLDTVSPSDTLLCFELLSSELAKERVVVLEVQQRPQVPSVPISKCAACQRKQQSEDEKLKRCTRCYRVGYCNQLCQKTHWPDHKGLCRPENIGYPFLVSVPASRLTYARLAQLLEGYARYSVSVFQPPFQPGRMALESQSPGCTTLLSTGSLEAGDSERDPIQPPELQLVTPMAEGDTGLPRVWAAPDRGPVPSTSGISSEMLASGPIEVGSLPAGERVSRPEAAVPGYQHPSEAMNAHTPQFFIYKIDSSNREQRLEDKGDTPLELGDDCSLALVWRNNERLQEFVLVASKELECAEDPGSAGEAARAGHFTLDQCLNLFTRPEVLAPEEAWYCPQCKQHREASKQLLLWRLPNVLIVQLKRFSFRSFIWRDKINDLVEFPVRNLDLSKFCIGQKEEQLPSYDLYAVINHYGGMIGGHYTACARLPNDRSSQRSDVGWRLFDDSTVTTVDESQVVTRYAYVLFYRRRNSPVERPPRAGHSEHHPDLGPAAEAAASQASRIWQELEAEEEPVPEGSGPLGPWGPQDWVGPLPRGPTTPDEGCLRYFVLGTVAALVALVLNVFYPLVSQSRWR
Description: USP19 fluorescence polarisation (FP) assay, Ubiquitin-Lys-TAMRA substrate. The class given is biochemical. Particulars: average of at least two duplicate experiments. Summed up: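 Full-length human USP19 (added at 2.5 nM) was preincubated 30 min at RT with inhibitor (serial dilutions 200 μM to 2 μM) in 50 mM HEPES pH 7.4, 150 mM NaCl, 5 mM DTT, 0.05% BSA, 0.05% CHAPS. Ubiquitin-Lys-TAMRA isopeptide substrate (added at 500 nM) started the reaction, and FP (Ex 530/Em 575 nm) was read every 15 min over 90 min. IC50 came from non-linear regression of signal normalised to no-compound control, averaged over at least two duplicate experiments.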
With `COc1ccccc1-c1cc(=O)n(C[C@@H]2CCN(C(=O)N3CC[C@@H](N)C[C@H]3c3ccccc3)CC23CCCC3)cn1` [Example 92, 3-(((R)-7-((2S,4R)-4-Amino-2-phenylpiperidine-1-carbonyl)-7-azaspiro[4.5]decan-10-yl)methyl)-6-(2-methoxyphenyl)pyrimidin-4(3H)-one], the IC50 is < 10 nM.
Turning to `O=C(N1CCC(Cn2cnc(-c3ccccc3)cc2=O)CC1)N1CCNC[C@H]1c1ccccc1` [Example 1, (R)-6-Phenyl-3-((1-(2-phenylpiperazine-1-carbonyl)piperidin-4-yl)methyl)pyrimidin-4(3H)-one], the IC50 is 100 to 1000 nM.
Take `CC1(C)CN(C(=O)N2CCNC[C@H]2c2ccccc2)CCC1Cn1cnc(-c2ccccc2)cc1=O` (stereo partly drawn) [Example 18, 3-((33-Dimethyl-1-((R)-2-phenylpiperazine-1-carbonyl)piperidin-4-yl)methyl)-6-phenylpyrimidin-4(3H)-one]: the IC50 is 10 to 100 nM.
Turning to `CC(C)N[C@@H]1CCN(C(=O)N2CC[C@@H](Cn3cnc(-c4ccccc4)cc3=O)C3(CCCC3)C2)[C@H](c2cc(F)ccc2F)C1` [Example 160, 3-(((R)-7-((2S,4R)-2-(2,5-Difluorophenyl)-4-(isopropylamino)piperidine-1-carbonyl)-7-azaspiro[4.5]decan-10-yl)methyl)-6-phenylpyrimidin-4(3H)-one], the IC50 is < 10 nM.
`CN[C@@H]1CCN(C(=O)N2CC[C@@H](Cn3cnc(-c4ccccc4F)cc3=O)C3(CCCC3)C2)[C@H](c2ccccc2)C1` [Example 109, 6-(2-Fluorophenyl)-3-(((R)-7-((2S,4R)-4-(methylamino)-2-phenylpiperidine-1-carbonyl)-7-azaspiro[4.5]decan-10-yl)methyl)pyrimidin-4(3H)-one]: the IC50 was < 10 nM.
As for `CN[C@@H]1CCN(C(=O)N2CC[C@@H](Cn3cnc(-c4ccccc4OC)cc3=O)C3(CCCC3)C2)[C@H](c2ccc(F)cc2F)C1` [Example 117, 3-(((R)-7-((2S,4R)-2-(2,4-Difluorophenyl)-4-(methylamino)piperidine-1-carbonyl)-7-azaspiro[4.5]decan-10-yl)methyl)-6-(2-methoxyphenyl)pyrimidin-4(3H)-one], the figure is < 10 nM.
Consider `CN[C@@H]1CCN(C(=O)N2CC[C@@H](Cn3ncccc3=O)C3(CCCC3)C2)[C@H](c2ccc(F)cc2F)C1` [Example 129, 2-(((R)-7-((2S,4R)-2-(2,4-Difluorophenyl)-4-(methylamino)piperidine-1-carbonyl)-7-azaspiro[4.5]decan-10-yl)methyl)pyridazin-3(2H)-one], for which the IC50 fell in the range of 10 to 100 nM.
As for `CN[C@@H]1CCN(C(=O)N2CCC(Cn3ccc(-c4ccccc4)cc3=O)CC2)[C@H](c2cc(F)ccc2F)C1` [Example 98, 1-((1-((2S,4R)-2-(2,5-Difluorophenyl)-4-(methylamino)piperidine-1-carbonyl)piperidin-4-yl)methyl)-4-phenylpyridin-2(1H)-one], the IC50 is < 10 nM.
As for `CC(C)(C)OC(=O)CN[C@@H]1CCN(C(=O)N2CC[C@@H](Cn3cnc(-c4ccccc4)cc3=O)C3(CCCC3)C2)[C@H](c2cc(F)ccc2F)C1` [Example 154, tert-Butyl ((2S,4R)-2-(2,5-difluorophenyl)-1-((R)-10-((6-oxo-4-phenylpyrimidin-1(6H)-yl)methyl)-7-azaspiro[4.5]decane-7-carbonyl)piperidin-4-yl)glycinate], the figure is < 10 nM; as for `N[C@@H]1CCN(C(=O)N2CC[C@H](Cn3cnc(-c4ccccc4)cc3=O)C3(CCCC3)C2)[C@H](c2ccccc2)C1` [Example 26], 100 to 1000 nM.
With `CN[C@@H]1CCN(C(=O)N2CC[C@@H](Cn3ccc(-c4ccccc4OC)cc3=O)C3(CCCC3)C2)[C@H](c2ccccc2F)C1` [Example 118, 1-(((R)-7-((2S,4R)-2-(2-Fluorophenyl)-4-(methylamino)piperidine-1-carbonyl)-7-azaspiro[4.5]decan-10-yl)methyl)-4-(2-methoxyphenyl)pyridin-2(1H)-one], the IC50 was < 10 nM.
Regarding `CC1(C)CN(C(=O)N2CC[C@@H](N)C[C@H]2c2ccccc2)CCC1Cn1ccc(-c2ccccc2)cc1=O` (stereo partly drawn) [Example 21, 1-((1-((2S,4R)-4-Amino-2-phenylpiperidine-1-carbonyl)-3,3-dimethylpiperidin-4-yl)methyl)-4-phenylpyridin-2(1H)-one], the concentration for half-maximal inhibition (IC50) was < 10 nM.
As for `O=C(O)CN[C@@H]1CCN(C(=O)N2CC[C@@H](Cn3cnc(-c4ccccc4)cc3=O)C3(CCCC3)C2)[C@H](c2cc(F)ccc2F)C1` [Example 158], the IC50 was < 10 nM.
As for `Cc1cc(C)nc(CN[C@@H]2CCN(C(=O)N3CC[C@@H](Cn4cnc(-c5ccccc5)cc4=O)C4(CCCC4)C3)[C@H](c3ccccc3)C2)n1` [Example 194, 3-(((R)-7-((2S,4R)-4-(((4,6-Dimethylpyrimidin-2-yl)methyl)amino)-2-phenylpiperidine-1-carbonyl)-7-azaspiro[4.5]decan-10-yl)methyl)-6-phenylpyrimidin-4(3H)-one], the figure is < 10 nM.
As for `CC1(C)CN(C(=O)N2CC[C@@H](N)C[C@H]2c2ccccc2)CCC1Cn1cnc(-c2ccccc2)cc1=O` (stereo partly drawn) [Example 19, 3-((1-((2S,4R)-4-Amino-2-phenylpiperidine-1-carbonyl)-3,3-dimethylpiperidin-4-yl)methyl)-6-phenylpyrimidin-4(3H)-one], the figure is < 10 nM; as for `CN[C@@H]1CCN(C(=O)N2CC[C@@H](Cn3cnc(-c4ccccc4)cc3=O)C3(CCCC3)C2)[C@H](c2cc(F)ccc2F)C1` [Example 78, 3-(((R)-7-((2S,4R)-2-(2,5-Difluorophenyl)-4-(methylamino)piperidine-1-carbonyl)-7-azaspiro[4.5]decan-10-yl)methyl)-6-phenylpyrimidin-4(3H)-one], < 10 nM.
As to `COCCN[C@@H]1CCN(C(=O)N2CC[C@@H](Cn3cnc(-c4ccccc4)cc3=O)C3(CCCC3)C2)[C@H](c2cccc(F)c2)C1` [Example 195, 3-(((R)-7-((2S,4R)-2-(3-Fluorophenyl)-4-((2-methoxyethyl)amino)piperidine-1-carbonyl)-7-azaspiro[4.5]decan-10-yl)methyl)-6-phenylpyrimidin-4(3H)-one], the IC50 is < 10 nM.
On to `CN[C@@H]1CCN(C(=O)N2CC[C@@H](Cn3ccc(-c4ccccc4)cc3=O)C3(CCCC3)C2)[C@H](c2ccccc2)C1` [Example 48, 1-(((R)-7-((2S,4R)-4-(Methylamino)-2-phenylpiperidine-1-carbonyl)-7-azaspiro[4.5]decan-10-yl)methyl)-4-phenylpyridin-2(1H)-one], for which the IC50 is < 10 nM.
With `CN[C@@H]1CCN(C(=O)N2CC[C@@H](Cn3cnc(-c4ccccc4F)cc3=O)C3(CCCC3)C2)[C@H](c2cccc(F)c2F)C1` [Example 140, 3-(((R)-7-((2S,4R)-2-(2,3-Difluorophenyl)-4-(methylamino)piperidine-1-carbonyl)-7-azaspiro[4.5]decan-10-yl)methyl)-6-(2-fluorophenyl)pyrimidin-4(3H)-one], the IC50 was < 10 nM.
As for `CN[C@@H]1CCN(C(=O)N2CC[C@@H](Cn3ccc(-c4ccccc4OC)cc3=O)C3(CCCC3)C2)[C@H](c2cc(F)ccc2F)C1` [Example 113, 1-(((R)-7-((2S,4R)-2-(2,5-Difluorophenyl)-4-(methylamino)piperidine-1-carbonyl)-7-azaspiro[4.5]decan-10-yl)methyl)-4-(2-methoxyphenyl)pyridin-2(1H)-one], the IC50 was < 10 nM.
`O=C(N1CC[C@@H](Cn2cnc(C(F)F)cc2=O)C2(CCCC2)C1)N1CC[C@@H](NCC(F)F)C[C@H]1c1cc(F)ccc1F` [Example 152, 3-(((R)-7-((2S,4R)-4-((2,2-Difluoroethyl)amino)-2-(2,5-difluorophenyl)piperidine-1-carbonyl)-7-azaspiro[4.5]decan-10-yl)methyl)-6-(difluoromethyl)pyrimidin-4(3H)-one]: the IC50 is 10 to 100 nM.

(Values after US20240327382A1 (ALMAC DISCOVERY LIMITED, priority 2021, published 2024).)
